Values of other authors, collected in patent publication US20260097000A1, “INTRANASAL DELIVERY OF CANNABINOIDS” (priority 2022, published 2026).

Legend:
[1] = oral delivery
[2] = rats, oral 10 mg kg^−1 and pulmonary 20 mg kg^−1

In the case of C=C(C)[C@@H]1CCC(C)=C[C@H]1c1c(O)cc(CCCCC)cc1O [CBD, cannabidiol], the “7-hydroxy-cannabidiol (7-OH-CBD) metabolite share of orally delivered CBD” value [1] is given as 40% and the “CBD levels in the brain” value [2] is given as 200 to 300 ng/g.
